From BigSolDB 2.1

O=c1cc(-c2ccc(O)cc2)oc2cc(O)cc(O)c12
solubility (mole fraction)
Conditions | 298.2 K | 303.2 K | 308.2 K | 313.2 K | 318.2 K
in DMSO | 0.376 | 0.384 | 0.395 | 0.407 | 0.418
in ethanol | 0.00025 | 0.000314 | 0.000358 | 0.000426 | 0.000486
in ethyl acetate | 0.000241 | 0.000284 | 0.000326 | 0.000394 | 0.000446
in ethylene glycol | 0.00522 | 0.00573 | 0.00644 | 0.00732 | 0.00822
in isopropanol | 0.00038 | 0.000427 | 0.000485 | 0.000551 | 0.000629
in methanol | 0.000142 | 0.000172 | 0.000207 | 0.000249 | 0.000296
in n-butanol | 0.000562 | 0.00063 | 0.000713 | 0.000808 | 0.000918
in propylene glycol | 0.0101 | 0.0112 | 0.0124 | 0.0137 | 0.015
in sec-butanol | 0.000534 | 0.000603 | 0.000685 | 0.000781 | 0.00089
in transcutol | 0.334 | 0.345 | 0.357 | 0.371 | 0.383
in water | 1.04e-06 | 1.33e-06 | 1.73e-06 | 2.27e-06 | 3.08e-06

Conditions | solubility (mole fraction)
in PEG-400, 298.2 K | 0.397
in PEG-400, 303.2 K | 0.405
in PEG-400, 308.2 K | 0.413
in PEG-400, 313.2 K | 0.42
in PEG-400, 318.2 K | 0.427
